Data taken from patent publication US4882349A, “Pyrrolacetic amides having antiinflammatory activity” (priority 1982, dated 1989).

Columns and labels:
in vivo [1] = details: mouse
in vivo [2] = details: rat
[3] = tested on: carrageenin-induced oedema; assay: carrageenin-induced oedema test (anti-inflammatory activity); assay type: in vivo, albino male Wistar rats
[4] = tested on: mucus secreted by the respiratory airway; assay: antisecretory activity, respiratory mucus secretion; assay type: in vivo, albino male New Zealand rabbits; details: vs control group
Protocol: The experiment was carried out in accordance with the method described by Y. Kase (Folia Pharmacol. Jap. 73: 605, 1977) for the purpose of investigating whether or not the compounds under examination determine changes in the volume of the mucus secreted by the respiratory airway. Groups of four albino male New Zealand rabbits (mean weight: 2.5 kg) were used for testing each dose per single group. The animals were anesthetized with urethane (1.1 g/ks b.w.) via the intraperitoneal route and a Y cannula was inserted into the trachea. In order to stimulate mucous secretion a humidifier was connected to the cannula permitting the animals to spontaneously breathe air with 100% humidity at a constant temperature of 39° C. The secreted mucus was collected through another opening in the cannula and measured at three and six hours after administration of the compounds under examination or of the vehicle alone administered in the order of […] (controls). Calculation of the increase or decrease in mucous secretion was based upon the percentage differences between the groups treated with the compounds under examination and the control group. Table VII gives the percentage differences in mucous secretion, and the tested compounds with relative doses and routes of administration.

[5] = tested on: phenyl-p-quinone-induced writhing (abdominal contractions); assay: phenylquinone-induced writhing test (analgesic activity), compound given 30 min before phenyl-p-quinone; assay type: in vivo, male Wistar rats
Method in brief: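 Male Wistar rats (110±5 g), fasted 14 h, received test compounds orally or parenterally in 0.5% CMC/saline vehicle 30 min before 2 ml of 0.36% phenyl-p-quinone in 5% ethanol.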

[6] = tested on: cough provoked by mechanical stimulation of the tracheal bifurcation mucosa; assay: antitussive activity, mechanically provoked coughing; assay type: in vivo, albino Guinea-pigs; details: 1 h after administration
Protocol: The antitussive effect on albino Guinea-pigs weighing 300 g was evaluated using the method described by Y. Kase (Selected Pharmacological Testing Methods, p.363, Marcel Dekker Inc., New York, 1968). Each dose was tested in a group of animals with a Y cannula inserted into the trachea. In order to provoke coughing, the mucosa of the tracheal bifurcation was mechanically stimulated by insertion of a wild boar's hair through an opening in the cannula, while the other opening was connected to a kymograph to plot the amplitude and/or frequency. The reduction in the number of coughs was evaluated at one hour after administration of the compounds under examination by following the plottings for twenty minutes and comparing the response of the control animals.

## Cc1ccc(C(=O)c2ccc(CC(=O)NCC(=O)O)n2C)cc1 [Compound 1-c, 1-methyl-5-p-toluoylpyrrole-2-acetamidoacetic acid]
In vivo [1]; ip
  LD50: 700 mg/kg
In vivo [1]; po
  LD50: 1000 mg/kg
In vivo [2]; ip
  LD50: 780 mg/kg
In vivo [2]; po
  LD50: 1300 mg/kg
[3]; 25 mg/Kg per os, 2 h
  oedema % inhibition: 38,6%
[3]; 25 mg/Kg per os, 4 h
  oedema % inhibition: 39,1%
[3]; 25 mg/Kg per os, 6 h
  oedema % inhibition: 37.2%
[3]; 25 mg/Kg per os, 24 h
  oedema % inhibition: 12.1%
[3]; 25 mg/Kg per os, 48 h
  oedema % inhibition: 0.0%
[3]; 25 mg/Kg per os, 72 h
  oedema % inhibition: 0.0%
[3]; 25 mg/Kg, Table IV (route not given), 2 h
  oedema % inhibition: 40.0%
[3]; 25 mg/Kg, Table IV (route not given), 4 h
  oedema % inhibition: 44.8%
[3]; 25 mg/Kg, Table IV (route not given), 6 h
  oedema % inhibition: 45.0%
[3]; 25 mg/Kg, Table IV (route not given), 24 h
  oedema % inhibition: 9.0%
[3]; 25 mg/Kg, Table IV (route not given), 48 h
  oedema % inhibition: 0.0%
[3]; 25 mg/Kg, Table IV (route not given), 72 h
  oedema % inhibition: 0.0%
[3]; 50 mg/Kg per os, 2 h
  oedema % inhibition: 51.8%
[3]; 50 mg/Kg per os, 4 h
  oedema % inhibition: 58.9%
[3]; 50 mg/Kg per os, 6 h
  oedema % inhibition: 60.4%
[3]; 50 mg/Kg per os, 24 h
  oedema % inhibition: 18.7%
[3]; 50 mg/Kg per os, 48 h
  oedema % inhibition: 0.0%
[3]; 50 mg/Kg per os, 72 h
  oedema % inhibition: 0.0%
[3]; 50 mg/Kg, Table IV (route not given), 2 h
  oedema % inhibition: 55.0%
[3]; 50 mg/Kg, Table IV (route not given), 4 h
  oedema % inhibition: 64.0%
[3]; 50 mg/Kg, Table IV (route not given), 6 h
  oedema % inhibition: 65.4%
[3]; 50 mg/Kg, Table IV (route not given), 24 h
  oedema % inhibition: 20.0%
[3]; 50 mg/Kg, Table IV (route not given), 48 h
  oedema % inhibition: 8.0%
[3]; 50 mg/Kg, Table IV (route not given), 72 h
  oedema % inhibition: 0.0%
[3]; 100 mg/Kg per os, 2 h
  oedema % inhibition: 69.0%
[3]; 100 mg/Kg per os, 4 h
  oedema % inhibition: 70.1%
[3]; 100 mg/Kg per os, 6 h
  oedema % inhibition: 67.0%
[3]; 100 mg/Kg per os, 24 h
  oedema % inhibition: 26.0%
[3]; 100 mg/Kg per os, 48 h
  oedema % inhibition: 10.0%
[3]; 100 mg/Kg per os, 72 h
  oedema % inhibition: 0.0%
[3]; 100 mg/Kg, Table IV (route not given), 2 h
  oedema % inhibition: 74.8%
[3]; 100 mg/Kg, Table IV (route not given), 4 h
  oedema % inhibition: 77.5%
[3]; 100 mg/Kg, Table IV (route not given), 6 h
  oedema % inhibition: 74.0%
[3]; 100 mg/Kg, Table IV (route not given), 24 h
  oedema % inhibition: 30.4%
[3]; 100 mg/Kg, Table IV (route not given), 48 h
  oedema % inhibition: 12.0%
[3]; 100 mg/Kg, Table IV (route not given), 72 h
  oedema % inhibition: 0.0%
[4]; 50 mg/Kg i.p., 3 h
  % difference in mucus secretion: 0.0%
[4]; 50 mg/Kg i.p., 6 h
  % difference in mucus secretion: 0.0%
[4]; 50 mg/Kg per os, 3 h
  % difference in mucus secretion: 0.0%
[4]; 50 mg/Kg per os, 6 h
  % difference in mucus secretion: +6%
[4]; 75 mg/Kg i.p., 3 h
  % difference in mucus secretion: -12%
[4]; 75 mg/Kg i.p., 6 h
  % difference in mucus secretion: -7%
[4]; 75 mg/Kg per os, 3 h
  % difference in mucus secretion: -10%
[4]; 75 mg/Kg per os, 6 h
  % difference in mucus secretion: -8%
[4]; 100 mg/Kg i.p., 3 h
  % difference in mucus secretion: -37%
[4]; 100 mg/Kg i.p., 6 h
  % difference in mucus secretion: -25%
[4]; 100 mg/Kg per os, 3 h
  % difference in mucus secretion: -35%
[4]; 100 mg/Kg per os, 6 h
  % difference in mucus secretion: -22%
[5]; 5 mg/Kg i.p.
  % Protection: 27.1%
[5]; 5 mg/Kg per os
  % Protection: 25.3%
[5]; 10 mg/Kg i.p.
  % Protection: 46.3%
[5]; 10 mg/Kg per os
  % Protection: 49.0%
[5]; 20 mg/Kg i.p.
  % Protection: 82.0%
[5]; 20 mg/Kg per os
  % Protection: 85.1%
[6]; 50 mg/Kg i.p.
  % inhibition, cough amplitude: 10%
  % inhibition, cough frequency: 25%
[6]; 50 mg/Kg per os
  % inhibition, cough amplitude: 12%
  % inhibition, cough frequency: 20%
[6]; 75 mg/Kg i.p.
  % inhibition, cough amplitude: 15%
  % inhibition, cough frequency: 27%
[6]; 75 mg/Kg per os
  % inhibition, cough amplitude: 20%
  % inhibition, cough frequency: 22%
[6]; 100 mg/Kg i.p.
  % inhibition, cough amplitude: 40%
  % inhibition, cough frequency: 51%
[6]; 100 mg/Kg per os
  % inhibition, cough amplitude: 38%
  % inhibition, cough frequency: 45%
